# Assays:
# [1] = tested on: human bladder cancer cell T-24; conditions: T-24, MTT
# Source text: (§1) The purpose of the assay is to evaluate the in vitro cell proliferation inhibition or cytotoxic activity of a tested sample.
# (§2) Human breast cancer cells MCF-7 and MDA-MB-231, human hepatoma cells HepG2, human non-small cell lung cancer cells A549, human large cell lung cancer cells H460 and H1299, human renal clear cell adenocarcinoma cell 786-0, human renal cell adenocarcinoma cell 769-P, human glioma cell U251, human glioblastoma cell A172, human tissue lymphoma cell U937, human cervical cancer cell HeLa, human prostate cancer cell PC3, human pancreatic cancer cell PANC-1, human esophageal cancer cell TE-1, human gastric adenocarcinoma cell SGC7901, human colon cancer cell HT-29, human promyelocytic leukemia cell HL-60, human thyroid cancer cell TPC-1, and human bladder cancer cell T-24.
# (§3) The inhibition rate of the medicament on tumor cell growth is calculated according to the following formula:
# (§4) Tumor cell growth inhibition rate (%)=[A492 (negative control)−A492 (dosing group)]/A492 (negative control)×100%
# (§5) And the half-inhibitory concentration (IC50) of the sample is determined therefrom.
# [2] = tested on: human thyroid cancer cell TPC-1; conditions: TPC-1, MTT
# Source text: as §1, §2, §3, §4, §5
# [3] = tested on: transplanted tumor of human prostate cancer cell PC3; experiment: PC3 transplanted tumor in nude mice
# Procedure: Then cell concentration was adjusted to 1×10^7/ml with matrigel, then each nude mouse was inoculated subcutaneously with 0.2 ml of cells at its right armpit and recorded as the first day of inoculation. When the tumor grows to be greater than or equal to 100 mm^3, the mice were randomly divided into 11 groups with 6 mice in each group: a model group, a cyclophosphamide group, isovaleryl spiramycin I groups with doses of 25, 50 and 100 mg/kg, isovaleryl spiramycin II groups with doses of 25, 50 and 100 mg/kg, and isovaleryl spiramycin III groups with doses of 25, 50 and 100 mg/kg. Each group was continuously administered intragastrically for 30 days with a dose of 20 ml/kg. The mice were sacrificed the next day after drug withdrawal and the indicators were tested. The long diameter and short diameter of the tumor, and the body weight of each mouse were recorded every 3 days from drug administration to nude mouse sacrifice.
# The body weight of the nude mice and the long diameter (a) and short diameter (b) of the transplanted tumor were measured every 3 days, and the tumor volume (v), relative tumor volume (RTV) and relative tumor proliferation rate (T/C) are calculated respectively according to the following formulas, wherein V=a×b^2/2; RTV=V/V0 (V0 is the tumor volume before administration, V is the tumor volume before sacrifice), and T/C (%)=treatment group RTV/model control group RTV×100%.
# Each mouse was weighed and sacrificed. After the tumor was completely stripped off from the body of the mouse, the non-tumor tissues such as blood stains and fat were removed to weigh the tumor and calculate the tumor growth inhibition rate. The average tumor weight of each group of mice is used as an indicator of efficacy. Tumor growth inhibition rate (%)=(1−the average tumor weight of the treatment group/the average tumor weight of the model group)×100%.
# [4] = tested on: transplanted tumor of mouse Lewis lung cancer; experiment: Transplanted tumor of mouse Lewis lung cancer; conditions: for Tumor Volume (mm3) (d 1) / Tumor Volume (mm3) (d30) / Relative Tumor Proliferation Rate (T/C) / Relative Tumor Volume (RTV): title prints KM mouse H22 cells; for Tumor Volume (mm3) (d30): d 30; for Body Weight (g) (d1) / Body Weight (g) (d 15): mouse, in vivo
# Procedure: Lewis lung cancer cells were cultured in a RPMI 1640 culture medium containing 10% fetal bovine serum at 37° C. in a 5% CO2 incubator. The cells in the logarithmic growth phase were subjected to trypsinization with 0.25% trypsin, then the cells were collected to be centrifugated to remove the obtained supernatant, then were washed twice with sterile normal saline. […] The Lewis cells were adjusted to 1×10^7/mL in concentration and stored in ice water. 75% ethanol was used to disinfect the skin under the right armpits of the mice, and each C57BL/6 mouse was soon inoculated subcutaneously with 0.2 ml of the cells at its right armpit.
# In the Lewis lung cancer model, the mice inoculated with the tumor were randomly divided into groups with 10 mice in each group the next day of inoculation. The groups included: a model control group, a positive drug cyclophosphamide control group (CTX, 30 mg/kg), isovaleryl spiramycin I groups with doses of 13, 26 and 52 mg/kg; isovaleryl spiramycin II groups with doses of 13, 26 and 52 mg/kg; isovaleryl spiramycin III groups with doses of 13, 26 and 52 mg/kg. Each group was continuously administered intragastrically for 15 days with a dose of 20 ml/kg.
# The tumor-bearing mice were weighed and sacrificed the next day after the last administration. The subcutaneous tumors were dissected and weighed. The average tumor weight of each group is calculated, and the tumor inhibition rate is calculated.
# Tumor inhibition rate=(1−T/C)×100%
# T: average tumor weight of the drug-administered group; C: average tumor weight of the blank control group.
# [5] = PC3, 25 mg/kg (low dose) i.g. 30 days
# [6] = PC3, 50 mg/kg (medium dose) i.g. 30 days
# [7] = PC3, 100 mg/kg (high dose) i.g. 30 days
structure (smiles),measurement,setting,value
"COC1C(OC(C)=O)CC(=O)OC(C)CC=CC=CC(OC2CCC(N(C)C)C(C)O2)C(C)CC(CC=O)C1OC1OC(C)C(OC2CC(C)(O)C(OC(=O)CC(C)C)C(C)O2)C(N(C)C)C1O (centres unmarked) [Isovaleryl spiramycin II, isovaleryl spiramycin II]",IC50,[1],39.85 ± 3.26 µg/mL
same,IC50,[2],45.37 ± 2.90 µg/mL
same,Inhibition Rate (tumor growth inhibition rate),[3]; [5],23.49%
same,Relative Tumor Proliferation Rate (T/C),[3]; [5],83.04%
same,Relative Tumor Volume (RTV),[3]; [5],16.24 ± 6.00
same,Tumor Volume (d 1),[3]; [5],154.86 ± 4.11 mm3
same,Tumor Volume (d 30),[3]; [5],2404.85 ± 672.33 mm3
same,Tumor Weight,[3]; [5],1.44 ± 0.56 g
same,Inhibition Rate (tumor growth inhibition rate),[3]; [6],40.16%
same,Relative Tumor Proliferation Rate (T/C),[3]; [6],60.08%
same,Relative Tumor Volume (RTV),[3]; [6],11.75 ± 3.78
same,Tumor Volume (d 1),[3]; [6],157.25 ± 38.97 mm3
same,Tumor Volume (d 30),[3]; [6],1729.14 ± 128.57 mm3
same,Tumor Weight,[3]; [6],1.13 ± 0.43 g
same,Inhibition Rate (tumor growth inhibition rate),[3]; [7],50.44%
same,Relative Tumor Proliferation Rate (T/C),[3]; [7],44.48%
same,Relative Tumor Volume (RTV),[3]; [7],8.70 ± 2.61
same,Tumor Volume (d 1),[3]; [7],131.11 ± 22.05 mm3
same,Tumor Volume (d 30),[3]; [7],1162.46 ± 495.46 mm3
same,Tumor Weight,[3]; [7],0.93 ± 0.27 g
same,tumor volume and relative tumor volume compared with the model group,"[3]; PC3, low, medium and high doses, P<0.05",significantly lower
same,mouse weight compared with the model group,"[3]; mouse, in vivo",no significant changes
same,growth of Lewis lung cancer in mice,"[4]; 13, 26 and 52 mg/kg i.g. 15 days",significantly inhibit
same,Tumor Volume (mm3) (d 1),[4]; dose 12.5 mg/kg,104.18 ± 19.49 mm3
same,Tumor Volume (mm3) (d30),[4]; dose 12.5 mg/kg,1304.48 ± 379.51 mm3
same,Relative Tumor Proliferation Rate (T/C),[4]; dose 12.5 mg/kg,80.51
same,Relative Tumor Volume (RTV),[4]; dose 12.5 mg/kg,12.89 ± 4.69
same,Inhibition Rate (%),[4]; dose 13 mg/kg,38.67%
same,Tumor Weight,[4]; dose 13 mg/kg,0.98 ± 0.37 g
same,Tumor Volume (mm3) (d 1),[4]; dose 25 mg/kg,103.63 ± 19.46 mm3
same,Tumor Volume (mm3) (d30),[4]; dose 25 mg/kg,1119.26 ± 338.67 mm3
same,Relative Tumor Proliferation Rate (T/C),[4]; dose 25 mg/kg,68.97
same,Relative Tumor Volume (RTV),[4]; dose 25 mg/kg,11.04 ± 4.07
same,Inhibition Rate (%),[4]; dose 26 mg/kg,44.26%
same,Tumor Weight,[4]; dose 26 mg/kg,0.89 ± 0.18 g
same,Tumor Volume (mm3) (d 1),[4]; dose 50 mg/kg,103.38 ± 18.03 mm3
same,Tumor Volume (mm3) (d30),[4]; dose 50 mg/kg,798.42 ± 189.19 mm3
same,Relative Tumor Proliferation Rate (T/C),[4]; dose 50 mg/kg,48.76
same,Relative Tumor Volume (RTV),[4]; dose 50 mg/kg,7.81 ± 1.76
same,Inhibition Rate (%),[4]; dose 52 mg/kg,56.34%
same,Tumor Weight,[4]; dose 52 mg/kg,0.70 ± 0.21 g
same,Body Weight (g) (d1),[4]; 13 mg/kg,20.33 ± 0.64 g
same,Body Weight (g) (d 15),[4]; 13 mg/kg,22.17 ± 1.74 g
same,Body Weight (g) (d1),[4]; 26 mg/kg,19.62 ± 1.43 g
same,Body Weight (g) (d 15),[4]; 26 mg/kg,22.38 ± 0.96 g
same,Body Weight (g) (d1),[4]; 52 mg/kg,20.05 ± 0.67 g
same,Body Weight (g) (d 15),[4]; 52 mg/kg,22.75 ± 0.95 g

# From patent US20200163984A1, “USE OF ISOVALERYL SPIRAMYCIN I, II AND/OR III IN MANUFACTURING MEDICAMENT FOR TREATING AND/OR PREVENTING TUMOR, AND MEDICAMENT” (SHENYANG FUYANG PHARMACEUTICAL TECHNOLOGY CO., LTD., priority 2017, published 2020)
